The values below are quoted from earlier work in US7163699B2, “Progestin co-micronized with a surfactant pharmaceutical composition comprising same methods for making same and uses thereof” (Laboratories Besins International, priority 2001, dated 2007).

Structures are written as SMILES.

The conditions of this data set: co-micronization with sodium lauryl sulfate or a sucrose ester of stearic acid.

For the compound `O=C1NC(=O)C(c2ccccc2)(c2ccccc2)N1` [phenitoin], the solubility of phenitoin entry is “not improved”.
